Laboratory results taken from patent US20090221559A1 (priority 2005, published 2009).
Where two headings read alike, the source gives them in different places. Each block holds one compound with its values, some of them ahead of it.

How the values were obtained:
[1] = target: T1, HCV NS5B polymerase (His-tagged, C-terminal 21 amino acid deleted NS5B, HC-J4) (Hepatitis C virus genotype 1b, UniProt O92972); assay: NS5b polymerase assay (biochemical RdRp assay, 3H-GTP incorporation, SPA beads); design: species or system HCV genotype 1b
T1 construct: The cDNA encoding NS5B amino acid 1-570 (HC-J4, genotype 1b); His tag (His6, from pET-21b) (C); made in house; host or cells: E. coli BL21 (DE3)
Outline: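 3H-GTP incorporation into newly made RNA was captured on SPA beads added in EDTA after 2 h at 25 °C. Compounds in DMSO met preformed enzyme–template complex (200 nM truncated His-NS5B, HC-J4 1b; biotin-oligo(rG13)/poly(rC)) for 15 min at RT, then 600 nM GTP, 5 mM MgCl2, Tris pH 7.5 started polymerization.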

[2] = system: HCV replicon RNA replication in Huh-7 luc/neo (Huh-Luc) cells; assay: HCV replicon assay (stable replicon cell reporter assay, luciferase read-out); assay type: cell-based, HCV type 1b
Outline: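 Three-day compound exposure used Huh-Luc cells, which harbour an autonomously replicating genotype 1b NS3-NS5B replicon expressing luciferase and neo^R. Luciferase signal served as the replication read-out, and dose-response curves came from several concentrations per compound.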

[3] = NS5B Polymerase Assay IC50, 200 nM enzyme, 3H-GTP incorporation, 2 h at 25° C.
[4] = Hepatitis C virus, Huh-7, 72 h, read-out: Replicon Assay EC50, Huh-Luc cells, three days incubation, luciferase activity
[5] = NS5B Polymerase Assay IC50 (μM)
[6] = Hepatitis C virus, Huh-7, 72 h, read-out: Replicon Assay EC50 (μM), Huh-Luc cells, incubation of three days, luciferase activity
[7] = 200 nM enzyme, 3H-GTP incorporation, 2 h at 25° C., read-out: NS5B Polymerase Assay IC50
[8] = Huh-Luc cells, three days incubation, luciferase activity, read-out: Replicon Assay EC50

T1 sequence (O92972 2417-3000, looked up, stated change not applied): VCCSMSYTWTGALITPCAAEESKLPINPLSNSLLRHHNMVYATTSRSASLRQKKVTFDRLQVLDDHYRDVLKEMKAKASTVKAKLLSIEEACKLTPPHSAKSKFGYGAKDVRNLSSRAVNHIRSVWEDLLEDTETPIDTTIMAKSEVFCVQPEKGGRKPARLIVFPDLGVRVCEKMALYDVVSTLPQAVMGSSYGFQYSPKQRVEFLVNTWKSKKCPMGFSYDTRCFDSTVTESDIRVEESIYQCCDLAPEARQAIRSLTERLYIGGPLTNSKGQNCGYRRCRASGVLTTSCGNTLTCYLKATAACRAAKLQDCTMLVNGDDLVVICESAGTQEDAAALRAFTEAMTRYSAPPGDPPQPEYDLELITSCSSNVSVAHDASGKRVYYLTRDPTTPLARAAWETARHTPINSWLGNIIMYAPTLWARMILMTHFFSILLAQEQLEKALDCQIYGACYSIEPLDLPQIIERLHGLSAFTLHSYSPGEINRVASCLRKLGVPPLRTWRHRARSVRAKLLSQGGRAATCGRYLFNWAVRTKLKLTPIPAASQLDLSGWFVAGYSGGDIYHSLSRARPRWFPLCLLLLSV

- melting point: 200 °C
SMILES: C=CCCC(=O)N1c2ccccc2NC2=C(C(=O)CC(C)(C)C2)C1c1ccc(Cl)cc1Cl (stereo not drawn)

- melting point: 242 °C
SMILES: CC(=O)N1c2ccc(CCCN)cc2NC2=C(C(=O)CC(C)(C)C2)C1c1ccc(Cl)cc1Cl (stereo not drawn)

- melting point: 258 °C
SMILES: CC(=O)N1c2c(CNCCCN(C)C)cccc2NC2=C(C(=O)CC(C)(C)C2)C1c1ccc(Cl)cc1Cl (stereo not drawn)

- melting point: 160 °C
SMILES: CC1(C)CC(=O)C2=C(C1)Nc1cc(CO)ccc1NC2c1ccc(Cl)cc1Cl (stereo not drawn)

- melting point: 200 °C
SMILES: CC(=O)N1c2c(CO)cccc2NC2=C(C(=O)CC(C)(C)C2)C1c1ccc(Cl)cc1Cl (stereo not drawn)

- melting point: 168 °C
SMILES: CC1(C)CC(=O)C2=C(C1)Nc1ccc(CO)cc1NC2c1ccc(Cl)cc1Cl (stereo not drawn)

- melting point: > 260 °C
SMILES: CC(=O)N1c2ccc(CN)cc2NC2=C(C(=O)CC(C)(C)C2)C1c1ccc(Cl)cc1Cl (stereo not drawn)

- melting point: > 260 °C
SMILES: CC(=O)N1c2c(cccc2C(=O)NCCc2ccncc2)NC2=C(C(=O)CC(C)(C)C2)C1c1ccc(Cl)cc1Cl (stereo not drawn)

SMILES: CC1(C)CC(=O)C2=C(C1)Nc1ccccc1N(C(=O)N1CCCCC1)C2c1ccc(Cl)cc1Cl (stereo not drawn) [compound 155]
- IC50 [1, 3]: > 133 µM
- melting point: > 260 °C

- melting point: > 250 °C
SMILES: COC(=O)c1ccc2c(c1)NC1=C(C(=O)CC(C)(C)C1)C(c1ccc(Cl)cc1Cl)N2C(C)=O (stereo not drawn)

- melting point: 258 °C
SMILES: CC(=O)N1c2ccccc2NC2=C(C(=O)CC(C)(C)C2)C1/C(Cl)=C/c1ccccc1 (stereo not drawn)

- melting point: 212 °C
SMILES: CC(=O)N1c2c(CNCCc3ccncc3)cccc2NC2=C(C(=O)CC(C)(C)C2)C1c1ccc(Cl)cc1Cl (stereo not drawn)

- melting point: 200 °C
SMILES: CC1(C)CC(=O)C2=C(C1)Nc1ccccc1N(C(=O)CC(=O)O)C2c1ccc(Cl)cc1Cl (stereo not drawn)

- melting point: 236 °C
SMILES: CC(=O)N1c2c(CNCCN3CCOCC3)cccc2NC2=C(C(=O)CC(C)(C)C2)C1c1ccc(Cl)cc1Cl (stereo not drawn)

- melting point: > 250 °C
SMILES: CC(=O)N1c2ccc(C(=O)O)cc2NC2=C(C(=O)CC(C)(C)C2)C1c1ccc(Cl)cc1Cl (stereo not drawn)

- melting point: > 260 °C
SMILES: CC(=O)N1c2ccc(CN(C)C)cc2NC2=C(C(=O)CC(C)(C)C2)C1c1ccc(Cl)cc1Cl (stereo not drawn)

SMILES: CC(=O)N1c2ccccc2N(C)C2=C(C(=O)CC(C)(C)C2)C1c1ccc(Cl)cc1Cl (stereo not drawn) [compound 322]
- EC50 [2, 4]: 44.1 µM
- melting point: 145 °C

- melting point: > 250 °C
SMILES: CC1(C)CC(=O)C2=C(C1)Nc1cc(C(=O)O)ccc1NC2c1ccc(Cl)cc1Cl (stereo not drawn)

- melting point: 226 °C
SMILES: CC(=O)N1c2c(cccc2C(=O)NCCCN(C)C)NC2=C(C(=O)CC(C)(C)C2)C1c1ccc(Cl)cc1Cl (stereo not drawn)

- melting point: > 260 °C
SMILES: CCCN(C)Cc1cccc2c1N(C(C)=O)C(c1ccc(Cl)cc1Cl)C1=C(CC(C)(C)CC1=O)N2 (stereo not drawn)

- melting point: > 260 °C
SMILES: CC(=O)N1c2c(cccc2C(=O)O)NC2=C(C(=O)CC(C)(C)C2)C1c1ccc(Cl)cc1Cl (stereo not drawn)

SMILES: CC(=O)N1c2cc(C#N)ccc2NC2=C(C(=O)CC(C)(C)C2)C1c1ccc(Cl)cc1Cl (stereo not drawn) [compound 318]
- IC50 [1, 3]: 67.1 µM
- melting point: > 250 °C

- melting point: > 260 °C
SMILES: CNCc1ccc2c(c1)NC1=C(C(=O)CC(C)(C)C1)C(c1ccc(Cl)cc1Cl)N2C(C)=O (stereo not drawn)

- melting point: > 250 °C
SMILES: COC(=O)c1ccc2c(c1)N(C(C)=O)C(c1ccc(Cl)cc1Cl)C1=C(CC(C)(C)CC1=O)N2 (stereo not drawn)

SMILES: COc1ccc(C2CC(=O)C3=C(C2)Nc2ccccc2NC3c2ccccc2OC)cc1OC (stereo not drawn) [compound 369]
- IC50 [1, 5]: > 42.7 µM
- EC50 [2, 6]: 10 µM

SMILES: CCOc1ccccc1C1Nc2ccccc2NC2=C1C(=O)CC(c1ccccc1)C2 (stereo not drawn) [compound 393]
- IC50 [1, 5]: > 33.3 µM
- EC50 [2, 6]: 6.84 µM

SMILES: CCCCOc1ccc(C2CC(=O)C3=C(C2)Nc2ccccc2N(C(=O)CC)C3c2ccccc2)cc1 (mixture of isomers) [compound 217]
- IC50 [1, 7]: > 42.7 µM
- EC50 [2, 8]: 20.3 µM

SMILES: CC(C)CC(=O)N1c2ccccc2NC2=C(C(=O)CC(C)(C)C2)C1c1cccs1 (stereo not drawn) [compound 248]
- IC50 [1, 3]: > 42.6 µM
- EC50 [2, 4]: 7.24 µM

SMILES: Cc1ccc(C2C3=C(CC(c4ccc(Cl)cc4)CC3=O)Nc3ccccc3N2C(=O)C(F)(F)F)cc1 (stereo not drawn) [compound 160]
- IC50 [1, 7]: > 33.3 µM
- EC50 [2, 8]: > 25 µM

SMILES: Cc1ccc(C2CC(=O)C3=C(C2)Nc2ccccc2NC3c2ccccc2Cl)cc1 (stereo not drawn) [compound 411]
- IC50 [1, 5]: > 33.3 µM
- EC50 [2, 6]: 17.9 µM

SMILES: CC(=O)N1c2ccccc2NC2=C(C(=O)CC(c3ccccc3Cl)C2)C1c1ccc(C)cc1 (stereo not drawn) [compound 229]
- IC50 [1, 7]: > 42.7 µM
- EC50 [2, 8]: 10.9 µM

SMILES: CCCOc1ccccc1C1CC(=O)C2=C(C1)Nc1ccccc1N(C(=O)C(F)(F)F)C2c1ccc(OC)cc1 (stereo not drawn) [compound 163]
- IC50 [1, 7]: > 42.7 µM
- EC50 [2, 8]: 1.76 µM

SMILES: CC1(C)CC(=O)C2=C(C1)Nc1ccccc1NC2c1cc2c(cc1[N+](=O)[O-])OCO2 (stereo not drawn) [compound 505]
- IC50 [1, 5]: > 42.7 µM
- EC50 [2, 6]: 13.5 µM

SMILES: CC(=O)N1c2ccccc2NC2=C(C(=O)CC(C)(C)C2)[C@@H]1c1ccc(OCc2ccccc2)cc1 (single isomer, unassigned) [compound 302]
- IC50 [1, 3]: 92.5 µM
- EC50 [2, 4]: 1.87 µM

SMILES: CCOc1ccccc1C1C2=C(CC(c3ccc(OC)cc3)CC2=O)Nc2ccccc2N1C(=O)C(F)(F)F (mixture of isomers) [compound 216]
- IC50 [1, 7]: > 42.7 µM
- EC50 [2, 8]: 25.3 µM

- melting point: 208 °C
SMILES: CCOC(=O)c1cccc2c1NC(c1ccc(Cl)cc1Cl)C1=C(CC(C)(C)CC1=O)N2 (stereo not drawn)

SMILES: CC(C)C(=O)N1c2ccccc2NC2=C(C(=O)CC(C)(C)C2)C1c1ccc(C(F)(F)F)cc1 (stereo not drawn) [compound 5]
- IC50 [1, 3]: > 42.7 µM
- EC50 [2, 4]: 19.9 µM

SMILES: CC(=O)N1c2ccccc2NC2=C(C(=O)CC(c3ccccc3OCc3ccccc3)C2)C1c1ccc(Cl)cc1Cl (single isomer, unassigned) [compound 186, 10-Acetyl-3-(2-benzyloxyphenyl)-11-(2,4-dichlorophenyl)-2,3,4,5,10,11-hexahydro-dibenzo[b,e][1,4]diazepin-1-one]
- IC50 [1, 3]: 40.9 µM
- EC50 [2, 4]: 2.03 µM

SMILES: COc1ccc(C2Nc3ccccc3NC3=C2C(=O)CC(c2ccc(Cl)cc2)C3)cc1OC (stereo not drawn) [compound 352]
- IC50 [1, 5]: > 42.7 µM
- EC50 [2, 6]: 9.61 µM

SMILES: CCC(=O)N1c2ccc(C(=O)c3ccccc3)cc2NC2=C(C(=O)CC(C)(C)C2)C1c1ccco1 (stereo not drawn) [compound 261]
- IC50 [1, 7]: > 42.7 µM
- EC50 [2, 8]: 9.3 µM

SMILES: COc1ccc(C2CC(=O)C3=C(C2)Nc2ccccc2NC3c2ccc(C(F)(F)F)cc2)cc1 (stereo not drawn) [compound 329]
- IC50 [1, 5]: > 33.3 µM
- EC50 [2, 6]: 11.1 µM

SMILES: COc1c(Cl)cc(Cl)cc1C1C2=C(CC(C)(C)CC2=O)Nc2ccccc2N1C(=O)Cc1ccccc1 (stereo not drawn) [compound 15]
- IC50 [1, 3]: > 42.7 µM
- EC50 [2, 4]: 3.09 µM

SMILES: CC(C)CC(=O)N1c2ccccc2NC2=C(C(=O)CC(C)(C)C2)C1c1ccc(Cl)cc1 (stereo not drawn) [compound 9]
- IC50 [1, 3]: > 42.7 µM
- EC50 [2, 4]: 3.61 µM

SMILES: COc1ccc(C2CC(=O)C3=C(C2)Nc2ccccc2NC3c2cc(Br)c(OC)c(OC)c2)cc1 (stereo not drawn) [compound 402]
- IC50 [1, 5]: > 42.7 µM
- EC50 [2, 6]: 8.59 µM

SMILES: O=C1CC(c2ccc(Cl)cc2)CC2=C1C(c1ccc(Cl)c(Cl)c1)Nc1ccccc1N2 (stereo not drawn) [compound 355]
- IC50 [1, 5]: > 42.7 µM
- EC50 [2, 6]: 5.48 µM

SMILES: CC(=O)N1c2ccccc2NC2=C(C(=O)CC(C)(C)C2)C1c1ccc(OCc2ccccc2)cc1OCc1ccccc1 (stereo not drawn) [compound 144, 10-acetyl-11-[2,4-dibenzyloxyphenyl]-3,3-dimethyl-2,3,4,5,10,11-hexahydro-1H-dibenzo[b,e][1,4]diazepin-1-one]
- IC50 [1, 3]: 23 µM
- EC50 [2, 4]: 3.1 µM

- melting point: > 260 °C
SMILES: CC1(C)CC(=O)C2=C(C1)Nc1cccc(CO)c1NC2c1ccc(Cl)cc1Cl (stereo not drawn)

SMILES: O=C1CC(c2ccccc2OCc2ccccc2)CC2=C1C(c1ccc(Cl)cc1Cl)Nc1ccccc1N2 (single isomer, unassigned) [compound 417, 3-(2-Benzyloxyphenyl)-11-(2,4-dichlorophenyl)-2,3,4,5,10,11-hexahydro-dibenzo[b,e][1,4]diazepin-1-one]
- IC50 ([1]; read-out: NS5B Polymerase Assay IC50): > 42.7 µM
- EC50 ([2]; read-out: Replicon Assay EC50, Huh-Luc cells, incubation of three days, luciferase activity): 8.33 µM

SMILES: CCC(=O)N1c2ccccc2NC2=C(C(=O)CC(c3ccc(OC)c(OC)c3)C2)C1c1ccc(Cl)cc1 (stereo not drawn) [compound 228]
- IC50 [1, 7]: > 33.3 µM
- EC50 [2, 8]: 17.2 µM

SMILES: CC(C)CC(=O)N1c2ccccc2NC2=C(C(=O)CC(C)(C)C2)C1c1ccc(Cl)c(Cl)c1 (stereo not drawn) [compound 78]
- IC50 [1, 3]: > 33.3 µM
- EC50 [2, 4]: 22.2 µM

SMILES: CCC(=O)N1c2ccccc2NC2=C(C(=O)CC(c3ccc(OC)cc3)C2)C1c1ccc(Cl)cc1 (stereo not drawn) [compound 227]
- IC50 [1, 7]: > 33.3 µM
- EC50 [2, 8]: 17 µM

- melting point: > 260 °C
SMILES: CC(=O)N1c2c(CN3CCOCC3)cccc2NC2=C(C(=O)CC(C)(C)C2)C1c1ccc(Cl)cc1Cl (stereo not drawn)

SMILES: CC1(C)CC(=O)C2=C(C1)Nc1ccccc1N(C(=O)C(F)(F)F)C2/C=C/c1ccccc1 (racemic) [compound 244]
- IC50 [1, 3]: > 33.3 µM
- EC50 [2, 4]: 15.9 µM

SMILES: COc1ccc(C2CC(=O)C3=C(C2)Nc2ccccc2N(C(=O)C(F)(F)F)C3c2ccc(Cl)cc2)cc1OC (stereo not drawn) [compound 226]
- IC50 [1, 7]: > 33.3 µM
- EC50 [2, 8]: 16.3 µM
